The subject of data set [1] is taxol-induced neuropathic pain model in mice. The data set can be described thus: Taxol-induced neuropathic pain in mice, von Frey test. Format: in vivo, mouse. The conditions noted are these: taxol 4 mg/kg I.P., 3, 10 or 30 mg/kg I.P. Here is the method: FIG. 6A. Effects of EXAMPLE-115 on taxol (4 mg/kg, I.P.)-induced neuropathic pain model in mice. Mechanical pain thresholds of left hindpaws were assessed using von Frey monofilament test. Each mouse received either EXAMPLE-115 (3, 10 or 30 mg/kg, I.P.) or vehicle (2% DMSO in 0.5% HPC, I.P.; n=8 per group). Injection of taxol lowered mechanical pain thresholds.
FIG. 6B. Effects of EXAMPLE-123 on taxol (4 mg/kg, I.P.)-induced neuropathic pain model in a separate cohort of mice. Mechanical pain thresholds of left hindpaws were assessed using von Frey monofilament test. Each mouse received either EXAMPLE-123 (30 mg/kg, I.P., n=8) or vehicle (2% DMSO in 0.5% HPC, I.P.).
Chemotherapy-induced painful neuropathy is a common side effect associated with chronic treatment with Taxol (paclitaxel) or other anticancer drugs based on cytotoxicity. Taxol or paclitaxel is one of the most popular drugs used for the treatment of various cancers (Chaudhry et al., 1994). The chemotherapy-induced peripheral neuropathy manifests as chronic hyperalgesia and other sensory abnormalities. Taxol (Sigma, 4.0 mg/kg, I.P.) was dissolved in saline containing 5% DMSO (vehicle) and injected to mice (freshly prepared before injection).

A short description of data set [2]: SafetyScreen 44 ancillary pharmacology panel. The text has this:
Moreover, compounds useful in therapeutic formulations may be further screened for undesired side effect activities by utilizing large ancillary pharmacology panel screens, for example, SafetyScreen 44 and the Ames microsomemutagenicity assay (Eurofins-Cerep, US and France).

“Also recorded” adds a separate entry of the source.

`O=C(Nc1nnc(-c2ccccc2)o1)c1ccc(Cl)s1` [Example 115, 5-Chloro-N-(5-phenyl-1,3,4-oxadiazol-2-yl)thiophene-2-carboxamide]: the “mechanical pain threshold, taxol-induced neuropathic pain” value in data set [1] was “produced significant effects on Taxol-induced pain compared to vehicle in a dose-dependent manner; also recorded: reversed the taxol-induced neuropathic pain in a dose-dependent manner”.

Take `CC(C)(C)NC(=O)CN1CCC2(CC1)CC2NC(=O)c1cc(F)cc(Cl)c1` (single isomer, unassigned) [Example 128, (S)—N-(6-(2-(tert-Butylamino)-2-oxoethyl)-6-azaspiro[2.5]octan-1-yl)-3-chloro-5-fluorobenzamide or (R)—N-(6-(2-(tert-Butylamino)-2-oxoethyl)-6-azaspiro[2.5]octan-1-yl)-3-chloro-5-fluorobenzamide]: the off-target activities result in data set [2] is recorded as “no significant off-target activities”.

The record behind these values is patent publication US10562857B2 (AFASCI, Inc., priority 2015, dated 2020).
